Results: publication PMC5978884, “Dissection of the antimicrobial and hemolytic activity of Cap18: Generation of Cap18 derivatives with enhanced specificity” (PLoS ONE, 2018)
In brackets after ≈: the same amount, converted by molar mass. Like-named read-outs stand apart in the source and are kept apart here. Where no end group is shown, it is not given here.

How the values were obtained:
Format in all cases: cell-based
[1] = system: Aeromonas salmonicida ATCC33658; assay: microbe, parasite or virus in culture; details: for MIC: Aeromonas salmonicida
Method: (§1) All strains were grown in Mueller-Hinton-II medium, except L. monocytogenes which was grown in BHI medium and L. lactis which was grown in MRS medium. Incubation took place aerobically at 37°C, except for Y. ruckeri and A. salmonicida, which were grown aerobically at RT (20 °C), and L. lactis grown aerobically at 30°C. All plates were incubated for 16–21 hours.
(§2) The minimum inhibitory concentrations (MICs) of the AMPs were measured in 96-well microtiter plates according the Clinical and Laboratory Standards Institute (CLSI, formerly National Committee for Clinical Laboratory Standards [NCCLS]). Briefly, liquid Mueller-Hinton-II medium containing increasing concentrations of AMPs is inoculated with a defined number of cells (approx. 10^5 CFUs/ml) in 96-well microtiter plates (polypropylene), whereas each plate also includes a positive growth control and a negative control (sterile control). The range of peptide concentrations analyzed was 0.125–64 μg/ml for the high purity peptides and 0.06–32 μg/ml for peptides of the variant library. After incubation, the MIC is determined by the lowest concentration showing no visible growth. All plates were incubated for 16–20 hours. The MIC of the reference antibiotics was determined by the use of Sensititre panels (Trek Diagnostic Systems Ltd, East Grinstead, UK).

[2] = system: Salmonella enterica serovar Typhimurium LT2; assay: microbe, parasite or virus in culture; details: for MIC: Salmonella enterica, TYPHIMURIUM, read-out: MIC Salmonella Typhimurium LT2; for MIC S. Typhimurium / MIC S. Typhimurium LT2: LT2
Method: as §1, §2

[3] = system: Yersinia ruckeri 392/2003; assay: microbe, parasite or virus in culture; details: for MIC: Yersinia ruckeri, 392/2003, read-out: MIC Yersinia ruckeri 392/2003
Method: as §1, §2

[4] = system: Lactococcus lactis IL1403
Method: as §1, §2

[5] = system: Enterococcus faecalis ATCC29212
Method: as §1, §2

[6] = system: Escherichia coli ATCC25922
Method: as §1, §2

[7] = system: Listeria monocytogenes N22-2
Method: as §1, §2

[8] = system: Pseudomonas aeruginosa ATCC27853
Method: as §1, §2

[9] = standard antibiotics, Sensititre panels, triplicates, ≤ = sensitive to lowest concentration in plate
[10] = ATCC33658, read-out: MIC Aermononas salmonicida ATCC33658

Row | Compound | MIC A. salmonicida ([1]; ATCC33658) [µg/mL] | MIC S. Typhimurium [2] [µg/mL] | MIC A. salmonicida ATCC33658 ([1]; ATCC33658) [µg/mL] | MIC S. Typhimurium LT2 [2] [µg/mL] | MIC Y. ruckeri 392/2003 [3] [µg/mL] | MIC E. faecalis ATCC29212 [5] [µg/mL] | MIC E. coli ATCC25922 [6] [µg/mL] | MIC L. lactis IL1403 [4] [µg/mL] | MIC L. monocytogenes N22-2 [7] [µg/mL] | MIC P. aeruginosa ATCC27853 [8] [µg/mL] | MIC Y. ruckeri [3] [µg/mL] | further results
1 | CC1(C)S[C@@H]2[C@H](NC(=O)[C@H](N)c3ccccc3)C(=O)N2[C@H]1C(=O)O [Ampicillin, reference compound] |  |  |  |  |  |  |  |  |  |  |  | MIC ([1]; ATCC33658, standard antibiotics, Sensititre panels, triplicates, ≤ = sensitive to lowest concentration in plate, read-out: MIC Aermononas salmonicida ATCC33658): ≤ 1 µg/mL; MIC [2, 9]: ≤ 1 µg/mL; MIC [3]: 2 µg/mL (≈ 5.72 µM)
2 | CNC(C)C1CCC(N)C(OC2C(N)CC(N)C(OC3OCC(C)(O)C(NC)C3O)C2O)O1 (centres unmarked) [Gentamicin, reference compound] |  |  |  |  |  |  |  |  |  |  |  | MIC [1, 10]: 1 µg/mL (≈ 2.09 µM); MIC [2]: 0.5 to 1 µg/mL (≈ 1.05 to 2.09 µM); MIC [3]: 1 to 2 µg/mL (≈ 2.09 to 4.19 µM)
3 | CCn1cc(C(=O)O)c(=O)c2ccc(C)nc21 [Nalidixic acid, reference compound] |  |  |  |  |  |  |  |  |  |  |  | MIC [1, 10]: ≤ 4 µg/mL; MIC [2]: ≤ 4 µg/mL; MIC [3]: 32 µg/mL (≈ 138 µM)
4 | GLRKRDRKFRNKIKEKLKKIGQKIQGLLPKLAPRTDY [Peptide L6D] | 16 | 8 |  |  |  |  |  |  |  |  |  | MIC L. lactis [4]: 16 µg/mL
5 | GLRKRLRKFRNKFKEKLKKIGQKIQGLLPKLAPRTDY [Peptide 4] |  |  | 4 | 4 | 2 | 8 to 16 | 4 to 8 | 2 | 4 | 4 to 8 |  | 
6 | GLRKRLRKFRNKHKEKLKKIGQKIQGLLPKLAPRTDY [Peptide 5] | 4 | 8 | 2 to 4 | 4 | 8 to 16 | ≥64 | 4 | ≥64 | 32 | 8 to 16 | 8 | 
7 | GLRKRLRKFRNKIKECLKKIGQKIQGLLPKLAPRTDY [Peptide 9] | 4 | 8 | 8 | 8 to 16 | 8 to 16 | 32 | 8 | ≥64 | 16 | 16 to 32 | 2 | 
8 | GLRKRLRKFRNKIKEDLKKIGQKIQGLLPKLAPRTDY [Peptide 10] |  |  | 2 to 4 | 4 | 4 | 32 | 4 to 8 | 2 | 4 to 8 | 16 to 32 |  | 
9 | GLRKRLRKFRNKIKEFLKKIGQKIQGLLPKLAPRTDY [Peptide 11] | 4 | 8 | 16 to 32 | 16 | 16 to 32 | 16 | 16 | ≥64 | 16 | 32 | 4 | 
10 | GLRKRLRKFRNKIKEILKKIGQKIQGLLPKLAPRTDY [Peptide 12] | 4 | 4 | 8 to 16 | 16 | 16 | 16 | 16 | ≥64 | 8 to 16 | 16 | 4 | 
11 | GLRKRLRKFRNKIKEKCKKIGQKIQGLLPKLAPRTDY [Peptide L17C] | 8 | 8 |  |  |  |  |  |  |  |  |  | 
12 | GLRKRLRKFRNKIKEKHKKIGQKIQGLLPKLAPRTDY [Peptide L17H] | 8 | 8 |  |  |  |  |  |  |  |  |  | 
13 | GLRKRLRKFRNKIKEKKKKIGQKIQGLLPKLAPRTDY [Peptide 17] | 4 | 4 | 16 to 32 | 16 | ≥64 | ≥64 | ≥64 | ≥64 | 16 to 32 | 8 |  | 
14 | GLRKRLRKFRNKIKEKLKKEGQKIQGLLPKLAPRTDY [Peptide 20] | 8 | 4 | 16 | 8 | 32 | ≥64 | ≥64 | 32 | 32 | 16 | 16 | 
15 | GLRKRLRKFRNKIKEKLKKHGQKIQGLLPKLAPRTDY [Peptide 21] | 2 | 2 | 4 | 8 | 16 | ≥64 | 32 | 32 | 16 | 8 | 8 | 
16 | GLRKRLRKFRNKIKEKLKKICQKIQGLLPKLAPRTDY [Peptide 23] | 4 | 8 | 16 to 32 | 16 | 16 | 32 | 16 | ≥64 | 16 | 32 | 4 | 
17 | GLRKRLRKFRNKIKEKLKKIGQKCQGLLPKLAPRTDY [Peptide 25] | 4 | 4 | 4 to 8 | 8 to 16 | 16 | 64 | 16 | ≥64 | 16 | 16 | 4 | 
18 | GLRKRLRKFRNKIKEKLKKIGQKHQGLLPKLAPRTDY [Peptide I24H] | 8 | 8 |  |  |  |  |  |  |  |  |  | 
19 | GLRKRLRKFRNKIKEKLKKIGQKIQGLLPKCAPRTDY [Peptide L31C] | 4 |  |  |  |  |  |  |  |  |  | 4 | MIC L. lactis [4]: 8 µg/mL
20 | GLRKRLRKFRNKIKEKLKKIGQKIQGLLPKLAPRHDY [Peptide T35H] | 2 |  |  |  |  |  |  |  |  |  | 2 | MIC L. lactis [4]: 8 µg/mL
21 | GLRKRLRKFRNKIKEKLKKIGQKIQGLLPKLAPRTDD [Peptide Y37D] | 2 |  |  |  |  |  |  |  |  |  | 2 | MIC L. lactis [4]: 8 µg/mL
22 | GLRKRLRKFRNKIKEKLKKIIQKIQGLLPKLAPRTDY [Peptide G21I] | 8 | 8 |  |  |  |  |  |  |  |  | 8 | 
23 | GLRKRLRKFRNKIKEKLKKQGQKIQGLLPKLAPRTDY [Peptide I20Q] | 8 | 8 |  |  |  |  |  |  |  |  | 8 | 
24 | GLRKRLRKFRNKIKEKLKKRGQKIQGLLPKLAPRTDY [Peptide I20R] | 16 | 8 |  |  |  |  |  |  |  |  | 16 | 
25 | GLRKRLRKFRNKNKEKLKKIGQKIQGLLPKLAPRTDY [Peptide I13N] | 8 | 8 |  |  |  |  |  |  |  |  |  | 
26 | GLRKRRRKFRNKIKEKLKKIGQKIQGLLPKLAPRTDY [Peptide L6R] | 16 | 8 |  |  |  |  |  |  |  |  | 16 | 
27 | Polymyxin E [reference compound] |  |  |  |  |  |  |  |  |  |  |  | MIC Aermononas salmonicida ATCC33658 [1, 9]: 2 µg/mL; MIC Salmonella Typhimurium LT2 [2, 9]: 2 µg/mL; MIC Yersinia ruckeri 392/2003 ([3]; standard antibiotics, Sensititre panels, triplicates): 1 to 2 µg/mL
